Experimental data: patent US11707474B2, “Methods for treating acute myeloid leukemia and related conditions” (GlycoMimetics, Inc., priority 2018, dated 2023)

How the values were obtained:
human AML blasts = assay: Orthotopic model of human AML with cytarabine and DNR; assay type: in vivo, NOD-SCID mice
Procedure: The impact of a compound of Formula (I) on survival was evaluated in NOD-SCID mice in an orthotopic model of human AML in combination with cytarabine and DNR.
10 mg/kg per day was identified as the minimally active murine dose that augmented cytarabine and DNR survival benefits.

[1] = tested on: relapsed/refractory (R/R) acute myeloid leukemia (AML); assay: Phase 2 clinical outcomes, relapsed/refractory AML, sodium salt infusion with MEC; assay type: in vivo, human
Procedure: In this Phase 2 study related to the Phase 1 study described above (see Example 13), 47 additional subjects were administered the RP2D dose of 10 mg/kg/dose. The data of the 19 subjects in the 10 mg/kg/dose arm of the Phase 1 study was added to the data of these 47 additional subjects, resulting in data for 66 human subjects being considered in the Phase 2 study.
In detail, consistent with the Phase 1 study protocols, a total of 66 human subjects with relapsed/refractory (R/R) acute myeloid leukemia (AML) were selected for this study (i.e., the 19 subjects from the 10 mg/kg/dose arm of the Phase 1 study plus 47 additional subjects).
Whether as part of the Phase 1 study (for 19 of the subjects) or as an additional subject for the Phase 2 study, each subject received a total of 15 infusions of the RP2D dose of 10 mg/kg/dose of the compound of Formula (I), administered as the sodium salt, over 8 days with a nominal infusion duration of 20 minutes (either as part of the Phase 1 study for 19 subjects or as a new Phase 2). The formulation for the infusion solution was as follows: […]
The first dose of a compound of Formula (I) was administered 24 hours±1 hour prior to the first dose of MEC (mitoxantrone, etoposide, and cytarabine) induction chemotherapy as a sentinel dose to evaluate the effect of the compound of Formula (I) alone (i.e., a single dose of 10 mg/kg the day before the first chemotherapy day). The compound of Formula (I) was then administered every 12 hours±1 hour on chemotherapy days, starting 2 hours prior to chemotherapy (i.e., 20 mg/kg per day on chemotherapy days). […] MEC chemotherapy was administered on Days 2-6.
The clinical outcome for each subject was assessed at the time of count recovery following completion of induction chemotherapy. Subjects were assigned to one of four response groups: complete remission (“CR”); complete remission with incomplete count recovery (“CRi”); morphologic leukemia-free state (“MLFS”); persistent disease (“PD”). Complete remission was defined as bone marrow blasts <5%; absence of circulating blasts and blasts with Auer rods; absence of extramedullary disease; ANC ≥1.0×10^9/L and platelets ≥100,000×10^9/L. Complete remission with incomplete recovery was defined as: all CR criteria except for residual neutropenia (<1.0×10^9/L) or thrombocytopenia (<100,000×10^9/L). Morphologic leukemia-free state was defined as: bone marrow blasts <5%; absence of blasts with Auer rods; absence of extramedullary disease; no hematologic recovery required. Persistent disease was defined as: bone marrow blasts >5%.
Outcomes shown below provide data for Phase 1 (Example 13, all cohorts combined), Phase 2, and Total (Phase 1 and Phase 2) subject populations.

Q: What does the source list for `CC[C@@H]1CC(C(=O)NCCNC(=O)CCOCCOCCOCCOCCOCCOCCOCCOCCOCCOCCOCCOC)C[C@@H](O[C@@H]2O[C@@H](CO)[C@H](O)C(O[C@@H](CC3CCCCC3)C(=O)O)C2NC(C)=O)C1OC1O[C@@H](C)C(O)[C@H](O)[C@@H]1O` (some centres unmarked) [compound of Formula (I)]?
A: tumor cell chemosensitivity as determined by circulating leukemic cells (human AML blasts; 5 mg/kg BID 10 days with cytarabine and DNR): marked enhancement of tumor cell chemosensitivity; numbers of AML blasts vs cytarabine and DNR alone (human AML blasts; 40 mg/kg with cytarabine and DNR): fewer numbers of AML blasts; minimally active murine dose that augmented cytarabine and DNR survival benefits (human AML blasts; with cytarabine and DNR): 10 mg/kg per day; response rate (CR/CRi) ([1]; after a single course of induction treatment with MEC): over 40%; severe oral mucositis rate ([1]; with MEC): 2-3%; one-year survival rate, MRD negative subjects ([1]; with MEC, RP2D 10 mg/kg/dose): 73%; one-year survival rate, all subjects ([1]; with MEC, RP2D 10 mg/kg/dose): 35%; median overall survival ([1]; with MEC, RP2D 10 mg/kg/dose, 95% CI 5.7-11.4): 8.8 months
